Results: paper doi:10.1101/2024.08.19.608619, “Discovery of potent SARS-CoV-2 nsp3 macrodomain inhibitors uncovers lack of translation to cellular antiviral response” (bioRxiv, 2024)
Where “and” joins values, the source holds several entries; their conditions need not be identical. Identical values can stand only once. Like-named read-outs stand apart in the source and are kept apart here.

Key:
[1] = system: SARS-CoV-2, isolate USA-WA1/2020; experiment: microbe, parasite or virus in culture; type: cell-based
[2] = target: T1, norepinephrine transporter (h) (Homo sapiens, UniProt P23975); experiment: In vitro CEREP profiling, norepinephrine transporter (h) (antagonist radioligand); type: binding; settings: test compound concentration 10 uM; for inhibition at 10 µM: read-out: perc_inhibition, % inhibition of the binding of a ligand specific for each target
T1 construct: purchased Eurofins Cerep (SafetyScreen44), recognised from the panel format
T1 sequence (P23975 whole entry): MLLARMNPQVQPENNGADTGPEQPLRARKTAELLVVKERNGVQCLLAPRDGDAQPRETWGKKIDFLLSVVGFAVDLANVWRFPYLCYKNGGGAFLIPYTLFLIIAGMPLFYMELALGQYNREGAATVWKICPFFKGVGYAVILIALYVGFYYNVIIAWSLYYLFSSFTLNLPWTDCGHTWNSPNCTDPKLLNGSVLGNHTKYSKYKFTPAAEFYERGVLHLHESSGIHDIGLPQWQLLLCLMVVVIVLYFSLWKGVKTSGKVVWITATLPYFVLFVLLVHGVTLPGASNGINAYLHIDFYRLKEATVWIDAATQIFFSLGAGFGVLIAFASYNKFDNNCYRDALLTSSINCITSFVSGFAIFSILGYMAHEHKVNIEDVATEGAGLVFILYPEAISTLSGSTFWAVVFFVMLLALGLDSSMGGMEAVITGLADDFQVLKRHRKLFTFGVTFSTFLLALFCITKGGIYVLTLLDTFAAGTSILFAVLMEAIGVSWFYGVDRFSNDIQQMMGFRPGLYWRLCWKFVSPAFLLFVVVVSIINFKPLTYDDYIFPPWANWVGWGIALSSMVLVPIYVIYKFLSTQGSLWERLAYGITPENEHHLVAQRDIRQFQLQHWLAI
Source text: (§1) Supplement media-1.zip/Safety_Panel_Profile.csv, table | column: perc_inhibition

D1 (h) = target: T2, D1 (h) (Homo sapiens, UniProt P21728); experiment: In vitro CEREP profiling, D1 (h) (antagonist radioligand); type: binding; settings: test compound 10 uM; for inhibition at 10 µM: read-out: perc_inhibition (% inhibition of the binding of a ligand specific for each target)
T2 construct: purchased Eurofins Cerep (SafetyScreen44), recognised from the panel format
T2 sequence (P21728 whole entry): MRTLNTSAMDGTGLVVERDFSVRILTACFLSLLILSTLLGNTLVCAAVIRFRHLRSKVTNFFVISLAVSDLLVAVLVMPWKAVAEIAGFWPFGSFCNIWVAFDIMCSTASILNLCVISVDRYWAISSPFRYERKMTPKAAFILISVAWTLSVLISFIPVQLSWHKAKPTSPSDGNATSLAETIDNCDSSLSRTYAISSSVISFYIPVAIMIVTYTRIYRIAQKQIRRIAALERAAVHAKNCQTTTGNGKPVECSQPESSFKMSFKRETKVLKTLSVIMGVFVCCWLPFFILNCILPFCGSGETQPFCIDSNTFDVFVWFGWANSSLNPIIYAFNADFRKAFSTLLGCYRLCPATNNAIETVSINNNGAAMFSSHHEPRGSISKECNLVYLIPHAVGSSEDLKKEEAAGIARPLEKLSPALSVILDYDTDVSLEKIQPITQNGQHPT
Source text: as §1

COX2(h) = target: T3, COX2(h) (Homo sapiens, UniProt P35354); experiment: In vitro CEREP profiling, COX2(h); type: biochemical; settings: test compound concentration 10 uM, Enzyme and Cell-based assays; for inhibition at 10 µM: read-out: perc_inhibition: % inhibition of control enzyme activity, COX2(h)
T3 construct: purchased Eurofins Cerep (SafetyScreen44), recognised from the panel format
T3 sequence (P35354 18-604): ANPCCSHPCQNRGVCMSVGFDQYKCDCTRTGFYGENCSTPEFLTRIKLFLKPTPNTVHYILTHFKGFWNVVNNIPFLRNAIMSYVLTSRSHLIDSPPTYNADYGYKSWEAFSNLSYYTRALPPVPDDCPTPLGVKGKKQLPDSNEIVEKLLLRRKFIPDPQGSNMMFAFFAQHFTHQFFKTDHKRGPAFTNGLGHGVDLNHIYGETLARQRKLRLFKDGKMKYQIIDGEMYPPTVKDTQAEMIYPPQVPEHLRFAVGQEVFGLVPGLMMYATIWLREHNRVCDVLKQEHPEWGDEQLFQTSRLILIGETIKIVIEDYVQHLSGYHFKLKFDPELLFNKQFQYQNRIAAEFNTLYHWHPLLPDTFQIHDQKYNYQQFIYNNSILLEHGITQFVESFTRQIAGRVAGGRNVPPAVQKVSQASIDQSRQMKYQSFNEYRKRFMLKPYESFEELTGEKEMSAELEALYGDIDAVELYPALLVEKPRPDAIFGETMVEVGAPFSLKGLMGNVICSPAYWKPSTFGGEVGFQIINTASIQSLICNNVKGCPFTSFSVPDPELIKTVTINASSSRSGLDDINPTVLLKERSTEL
Source text: as §1

Protein binding = type: in vitro ADME
Source text: Supplement media-1.zip/Protein_Binding.csv, table | column: fu; perc_bound; perc_free; perc_recovered

[3] = target: T4, Potassium Channel hERG (human) (Homo sapiens, UniProt Q12809); experiment: In vitro CEREP profiling, Potassium Channel hERG (human)- [3H] Dofetilide; type: binding; settings: test compound concentration 10 uM
T4 construct: purchased Eurofins Cerep (SafetyScreen44), recognised from the panel format
Source text: as §1

PKCα(h) = target: T5, PKCα(h) (Homo sapiens, UniProt P17252); experiment: biochemical; parameters: In vitro kinase panel profiling, per cent remaining kinase activity at 10 uM; settings: atp_concentration=45, read-out: % of control remaining
T5 construct: gene PRKCA
Source text: (§2) We derisk potential for off-target activity by profiling the compound in a CEREP panel, a standard secondary pharmacology assessment, as well as a kinase panel to derisk a potential hinge-binding motif in our leads, and a PARP panel to derisk activity against human […]. Reassuringly, the compounds are selective, with the only off-targets being moderate human CHRM2 and KOR receptors activity associated with ASAP-0011198.

5-HT2A (h) = target: T6, 5-HT2A (h) (Homo sapiens, UniProt P28223); experiment: In vitro CEREP profiling, 5-HT2A (h) (agonist radioligand); type: binding; settings: test compound concentration 10 uM; for inhibition at 10 µM: read-out: perc_inhibition, % inhibition of the binding of a ligand specific for each target
T6 construct: purchased Eurofins Cerep (SafetyScreen44), recognised from the panel format
T6 sequence (P28223 whole entry): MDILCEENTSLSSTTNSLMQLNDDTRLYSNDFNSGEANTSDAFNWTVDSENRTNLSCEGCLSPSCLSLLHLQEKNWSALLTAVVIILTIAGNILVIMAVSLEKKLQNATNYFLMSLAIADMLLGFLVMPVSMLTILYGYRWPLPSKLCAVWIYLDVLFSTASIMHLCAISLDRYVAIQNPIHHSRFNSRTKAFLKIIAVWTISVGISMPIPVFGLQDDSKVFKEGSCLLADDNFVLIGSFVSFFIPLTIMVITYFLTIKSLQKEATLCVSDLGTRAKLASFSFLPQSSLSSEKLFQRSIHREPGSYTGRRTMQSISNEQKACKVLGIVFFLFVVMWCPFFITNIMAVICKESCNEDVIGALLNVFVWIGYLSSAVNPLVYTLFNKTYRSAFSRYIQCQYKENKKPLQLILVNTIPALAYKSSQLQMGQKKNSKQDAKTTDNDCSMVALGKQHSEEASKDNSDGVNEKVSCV
Source text: as §1

D2S (h) = target: T7, D2S (h) (Homo sapiens, UniProt P14416); experiment: In vitro CEREP profiling, D2S (h) (agonist radioligand); type: binding; settings: test compound 10 uM; for inhibition at 10 µM: read-out: perc_inhibition (% inhibition of the binding of a ligand specific for each target)
T7 construct: purchased Eurofins Cerep (SafetyScreen44), recognised from the panel format
T7 sequence (P14416 1-414 isoform P14416-2): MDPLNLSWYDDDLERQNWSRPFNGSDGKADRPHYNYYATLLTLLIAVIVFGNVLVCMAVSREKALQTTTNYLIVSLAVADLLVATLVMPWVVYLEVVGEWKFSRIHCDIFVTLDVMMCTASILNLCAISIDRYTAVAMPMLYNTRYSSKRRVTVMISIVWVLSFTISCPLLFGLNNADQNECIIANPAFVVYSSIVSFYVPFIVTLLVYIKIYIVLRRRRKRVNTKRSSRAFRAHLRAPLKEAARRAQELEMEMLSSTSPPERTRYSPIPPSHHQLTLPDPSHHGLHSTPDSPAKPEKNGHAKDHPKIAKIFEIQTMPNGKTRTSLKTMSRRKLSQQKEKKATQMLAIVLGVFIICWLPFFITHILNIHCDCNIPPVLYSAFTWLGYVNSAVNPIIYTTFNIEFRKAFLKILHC
Source text: as §1

[4] = Hepatic microsomal stability, MLM; type: in vitro ADME
[5] = In vitro human hepatocyte stability; type: in vitro ADME
Source text: Supplement media-1.zip/Hepatocyte_Stability.csv, table | column: clint; t_half

5-HT2B (h) = target: T8, 5-HT2B (h) (Homo sapiens, UniProt P41595); experiment: In vitro CEREP profiling, 5-HT2B (h) (agonist radioligand); type: binding; settings: test compound concentration 10 uM; for inhibition at 10 µM: read-out: perc_inhibition, % inhibition of the binding of a ligand specific for each target
T8 construct: purchased Eurofins Cerep (SafetyScreen44), recognised from the panel format
T8 sequence (P41595 whole entry): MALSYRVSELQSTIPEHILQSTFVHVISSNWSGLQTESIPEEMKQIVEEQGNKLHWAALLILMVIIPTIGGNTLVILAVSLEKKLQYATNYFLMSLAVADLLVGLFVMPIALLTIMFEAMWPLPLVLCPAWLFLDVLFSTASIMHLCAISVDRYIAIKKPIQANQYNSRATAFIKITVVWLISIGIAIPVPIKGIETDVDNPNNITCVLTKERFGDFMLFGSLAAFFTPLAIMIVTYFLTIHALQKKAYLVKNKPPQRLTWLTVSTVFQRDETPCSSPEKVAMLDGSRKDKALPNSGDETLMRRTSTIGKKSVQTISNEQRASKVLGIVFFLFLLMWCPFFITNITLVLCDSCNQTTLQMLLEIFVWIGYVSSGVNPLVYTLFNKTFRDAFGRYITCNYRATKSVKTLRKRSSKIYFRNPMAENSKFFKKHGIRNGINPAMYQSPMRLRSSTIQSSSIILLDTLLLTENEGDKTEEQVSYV
Source text: as §1

beta1 (h) = target: T9, beta1 (h) (Homo sapiens, UniProt P08588); experiment: In vitro CEREP profiling, beta1 (h) (agonist radioligand); type: binding; settings: test compound 10 uM; for inhibition at 10 µM: read-out: perc_inhibition (% inhibition of the binding of a ligand specific for each target)
T9 construct: purchased Eurofins Cerep (SafetyScreen44), recognised from the panel format
T9 sequence (P08588 whole entry): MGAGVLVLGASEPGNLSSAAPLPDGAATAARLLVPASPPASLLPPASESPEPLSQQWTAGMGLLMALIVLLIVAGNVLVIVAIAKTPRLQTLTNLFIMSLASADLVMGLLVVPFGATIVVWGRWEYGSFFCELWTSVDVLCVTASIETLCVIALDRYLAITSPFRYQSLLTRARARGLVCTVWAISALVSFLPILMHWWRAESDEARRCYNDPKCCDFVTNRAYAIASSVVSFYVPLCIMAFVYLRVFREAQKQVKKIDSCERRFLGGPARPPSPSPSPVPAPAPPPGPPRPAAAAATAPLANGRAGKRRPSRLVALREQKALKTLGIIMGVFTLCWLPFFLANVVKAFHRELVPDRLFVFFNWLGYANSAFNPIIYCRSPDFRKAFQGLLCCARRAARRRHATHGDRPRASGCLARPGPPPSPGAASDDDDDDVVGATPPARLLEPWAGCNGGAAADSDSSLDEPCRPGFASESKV
Source text: as §1

CDK6/cyclinD3(h) = CDK6/cyclinD3(h) (Homo sapiens, UniProt Q00534); experiment: biochemical; parameters: In vitro kinase panel profiling, per cent remaining kinase activity at 10 uM; settings: atp_concentration=200, read-out: % of control remaining
Sequence of CDK6/cyclinD3(h) (Q00534 whole entry): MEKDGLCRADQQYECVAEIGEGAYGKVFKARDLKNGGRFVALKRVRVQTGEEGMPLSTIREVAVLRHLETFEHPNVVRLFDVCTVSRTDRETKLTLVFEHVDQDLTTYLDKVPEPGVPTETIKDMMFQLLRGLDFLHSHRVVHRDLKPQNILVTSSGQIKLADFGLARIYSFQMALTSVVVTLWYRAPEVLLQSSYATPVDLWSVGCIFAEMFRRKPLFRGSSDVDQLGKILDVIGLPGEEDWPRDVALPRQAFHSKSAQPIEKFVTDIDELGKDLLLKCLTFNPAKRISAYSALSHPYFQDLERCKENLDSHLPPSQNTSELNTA
Sequence of CDK6/cyclinD3(h) (P30281 whole entry partner): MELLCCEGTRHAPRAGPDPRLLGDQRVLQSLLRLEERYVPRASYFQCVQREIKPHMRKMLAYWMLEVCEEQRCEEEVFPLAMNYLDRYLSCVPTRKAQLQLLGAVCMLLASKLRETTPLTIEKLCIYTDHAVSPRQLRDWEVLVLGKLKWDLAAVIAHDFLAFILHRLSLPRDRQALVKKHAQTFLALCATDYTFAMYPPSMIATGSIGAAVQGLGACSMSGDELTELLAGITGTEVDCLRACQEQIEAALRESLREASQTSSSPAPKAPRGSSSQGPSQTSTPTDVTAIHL
Source text: as §2

[6] = Hepatic microsomal stability, HLM; type: in vitro ADME, human; settings: for clearance (metabolic stability), in words: HLM/MLM; for perc_remaining / t_half / perc_remaining_no_cofactor / microsomal CLint: In vitro human liver microsomal stability; for perc_remaining_no_cofactor: no cofactor; for microsomal CLint: liver microsomes
[7] = HeLa-ACE2 SARS-CoV-2 antiviral effect without P-gp inhibitor, maximum measured response
[8] = HeLa-ACE2 SARS-CoV-2 antiviral effect without P-gp inhibitor, maximum measured response of dose series
[9] = HeLa-ACE2 SARS-CoV-2 antiviral effect without P-gp inhibitor, minimum measured response
[10] = HeLa-ACE2 SARS-CoV-2 antiviral effect without P-gp inhibitor, minimum measured response of dose series
[11] = In vitro dog plasma protein binding
[12] = In vitro fetal calf serum protein binding
[13] = In vitro human plasma protein binding
[14] = In vitro mouse plasma protein binding
[15] = In vitro rat plasma protein binding
[16] = In vitro mouse liver microsomal stability
[17] = Severe acute respiratory syndrome coronavirus 2, HeLa-ACE2
[18] = Severe acute respiratory syndrome coronavirus 2, HeLa-ACE2, read-out: HelaACE2 EC50
[19] = In vitro mouse liver microsomal stability, no cofactor
[20] = liver microsomes; In vitro mouse liver microsomal stability

## CC(C)[C@@H](Nc1ncnc2[nH]c(-c3cnn(C)c3C#N)cc12)c1ccc2c(n1)OCCO2 [ASAP-0010716]
[1]; [7]
  perc_max_measured: 105.062%
[1]; [8]
  perc_max_measured: 119.294%
[1]; [9]
  perc_min_measured: 1.471%
[1]; [10]
  perc_min_measured: 1.653%
[1]; HeLa-ACE2 SARS-CoV-2 antiviral effect without P-gp inhibitor, read-out: ec90
  EC90: 7.55 µM and 9.22 µM
[2]
  perc_inhibition (% inhibition of the binding of a ligand specific for each target): 4%
D1 (h)
  perc_inhibition (% inhibition of the binding of a ligand specific for each target): 10%
COX2(h)
  perc_inhibition: % inhibition of control enzyme activity, COX2(h): -7%
Protein binding; [11]
  fu: 0.029
  perc_bound: 97.1%
  perc_free: 2.93%
  perc_recovered: 91.53%
Protein binding; [12]
  fu: 0.038
  perc_bound: 96.2%
  perc_free: 3.84%
  perc_recovered: 96.46%
Protein binding; [13]
  fu: 0.005
  perc_bound: 99.5%
  perc_free: 0.507%
  perc_recovered: 111.8%
Protein binding; [14]
  fu: 0.027
  perc_bound: 97.3%
  perc_free: 2.67%
  perc_recovered: 94.71%
Protein binding; [15]
  fu: 0.022
  perc_bound: 97.8%
  perc_free: 2.16%
  perc_recovered: 100.0%
[3]
  perc_inhibition (% inhibition of the binding of a ligand specific for each target): 32%
PKCα(h); batch_name=ASAP-0010716-002
  remaining activity at 10 µM: 99%
5-HT2A (h)
  perc_inhibition (% inhibition of the binding of a ligand specific for each target): 14%
D2S (h)
  perc_inhibition (% inhibition of the binding of a ligand specific for each target): 3%
[4]; [16]
  clint: 371.0 µL/min/mg
  perc_remaining: 1.0%
  t_half: 4.5 min
[4]; In vitro mouse liver microsomal stability; no cofactor
  perc_remaining_no_cofactor: 99.0%
[5]
  clint: 182.0 uL/min/1E6 cells
  t_half: 3.81 min
5-HT2B (h)
  perc_inhibition (% inhibition of the binding of a ligand specific for each target): 40%
beta1 (h)
  perc_inhibition (% inhibition of the binding of a ligand specific for each target): -2%

## CC(C)C(Nc1ncnc2[nH]c(C(=O)NC3CCN(C)C3)cc12)c1ccc2c(c1)S(=O)(=O)CCC2 (centres unmarked) [ASAP-0011198]
[1]; [7]
  perc_max_measured: 109.068%
[1]; [8]
  perc_max_measured: 108.327%
[1]; [9]
  perc_min_measured: 93.8%
[1]; [10]
  perc_min_measured: 87.557%
[1]; [17]
  EC50: > 20 µM
  EC90: > 20 µM
[1]; [18]
  EC50: > 20 µM
[2]
  inhibition at 10 µM: -1%
D1 (h)
  inhibition at 10 µM: -3%
COX2(h)
  inhibition at 10 µM: 4%
Protein binding; [11]
  perc_bound: 83.5%
  perc_free: 16.5%
  perc_recovered: 87.93%
Protein binding; [12]
  fu: 0.173
  perc_bound: 86.0% and 82.7%
  perc_free: 14.0% and 17.3%
  perc_recovered: 61.17% and 107.7%
Protein binding; [13]
  fu: 0.271
  perc_bound: 74.5% and 72.9%
  perc_free: 25.5% and 27.1%
  perc_recovered: 81.11% and 116.7%
Protein binding; [14]
  fu: 0.184
  perc_bound: 90.1% and 81.6%
  perc_free: 9.91% and 18.4%
  perc_recovered: 88.65% and 93.8%
Protein binding; [15]
  fu: 0.164
  perc_bound: 87.5% and 83.6%
  perc_free: 12.5% and 16.4%
  perc_recovered: 93.33% and 104.0%
Protein binding; bovine, fetal calf serum, In vitro fetal calf serum protein binding
  fraction unbound: 0.14
Protein binding; dog, plasma, In vitro dog plasma protein binding
  fraction unbound: 0.165
Protein binding; human, plasma, In vitro human plasma protein binding
  fraction unbound: 0.255
Protein binding; mouse, plasma, In vitro mouse plasma protein binding
  fraction unbound: 0.099
Protein binding; rat, plasma, In vitro rat plasma protein binding
  fraction unbound: 0.125
PKCα(h); batch_name=ASAP-0011198-002
  remaining activity at 10 µM: 101%
CDK6/cyclinD3(h); batch_name=ASAP-0011198-002
  remaining activity at 10 µM: 99%
5-HT2A (h)
  inhibition at 10 µM: 1%
D2S (h)
  inhibition at 10 µM: -7%
[4]; [16]
  perc_remaining: 80.0%
  t_half: 151.0 min
[4]; [19]
  perc_remaining_no_cofactor: 92.0%
[4]; [20]
  microsomal CLint: 11 µL/min/mg
[5]
  t_half: > 231.0 min
[5]; hepatocytes
  hepatocyte CLint: < 3 µL/min/1e6 cells
[6]
  clearance (metabolic stability), in words: low clearance
  perc_remaining: 70.0%
  t_half: 83.8 min
  perc_remaining_no_cofactor: 106.0%
  microsomal CLint: 20 µL/min/mg
5-HT2B (h)
  inhibition at 10 µM: 6%
beta1 (h)
  inhibition at 10 µM: 4%

## Cc1nn(C)cc1-c1cc2c(NC(c3ccc4c(c3)S(=O)(=O)CCC4)C(C)C)ncnc2[nH]1 (centres unmarked) [ASAP-0011446]
[1]; [7]
  perc_max_measured: 111.189%
[1]; [8]
  perc_max_measured: 120.747%
[1]; [9]
  perc_min_measured: 56.402%
[1]; [10]
  perc_min_measured: 82.491%
[1]; [17]
  EC50: > 20 µM
  EC90: > 20 µM
[1]; [18]
  EC50: > 20 µM
[2]
  inhibition at 10 µM: -2%
D1 (h)
  inhibition at 10 µM: 3%
COX2(h)
  inhibition at 10 µM: 23%
PKCα(h); batch_name=ASAP-0011446-002
  remaining activity at 10 µM: 93%
CDK6/cyclinD3(h); batch_name=ASAP-0011446-002
  remaining activity at 10 µM: 106%
5-HT2A (h)
  inhibition at 10 µM: 51%
D2S (h)
  inhibition at 10 µM: -16%
[4]; [16]
  perc_remaining: 4.0%
  t_half: 8.3 min
[4]; [19]
  perc_remaining_no_cofactor: 104.0%
[4]; [20]
  microsomal CLint: 202 µL/min/mg
[6]
  clearance (metabolic stability), in words: moderate-to-high clearance
  perc_remaining: 1.0%
  t_half: 6.1 min
  perc_remaining_no_cofactor: 113.0%
  microsomal CLint: 273 µL/min/mg
5-HT2B (h)
  inhibition at 10 µM: 43%
beta1 (h)
  inhibition at 10 µM: 1%
